One data set in a line: Plasma stability. The class given is in vitro ADME. The following applies: male Sprague-Dawley rat plasma, 6 μL of 1 mM compound (10% DMSO) in 27 μL plasma, 37°C, 0-24 h, UPLC-MS, one-phase decay, mean ± SEM of at least three experiments, read-out: Plasmatic half-life t1/2 (±SEM). The method, then:
The degradation was quenched by adding 140 μL of 1% formic acid in an acetonitrile-ethanol (1:1) solution containing 0.25 mM of N,N-dimethylbenzamide (used as an internal standard). This mixture was initially transferred to an Impact Protein Precipitation filter plate (Phenomenex, California), the filtrates from which were subsequently collected in a second 96-well UPLC plate. Both plates were centrifuged at 500 g for 10 min while maintaining a temperature of 4°C. The filtrates were then diluted with 30 μL of distilled water and processed for analysis using an Acquity UPLC-MS system class H (using an Acquity UPLC protein BEH C18 column that measured 2.1 mm × 50 mm and had 1.7 μm particles with pores 130 Å in width). The peptide half-life, derived from the degradation curve, was calculated using the exponential one-phase decay function in GraphPad Prism 9. Degradation was estimated by comparing the mass spectrum at each point with those at the zero-minute mark. The data were presented as a mean ± SEM of at least three unique experiments, each performed in singlicate.

The next data set concerns Sprague-Dawley rats. Kind of data set: Simultaneous in vivo echocardiography and blood pressure measurements. More on the design: species or system rat. The following applies: intrajugular perfusion 0.96 nmol kg−1 min−1, n = 4; for Change in left ventricular ejection fraction (ΔEF) / cardiac contractility: isoflurane-anesthetized Sprague-Dawley rats; for Change in mean arterial blood pressure (ΔMABP): isoflurane-anesthetized normotensive Sprague-Dawley rats. How it is done: All ligands were administered intravenously at the same dose (0.96 nmol kg^−1 min^−1), by instrumentalizing adult Sprague-Dawley rats for simultaneous recordings of arterial blood pressure and cardiac function (Figure 5A).
Figure 5. Simultaneous in vivo cardiac ultrasound imaging and blood pressure monitoring of adult Sprague-Dawley rats following constant administration of AT1R ligands. (A) The acquisition setup for each isoflurane-anesthetized rat includes a catheter in the right femoral artery connected to a TDX300 Micro-med transducer and BPA-100c blood pressure (BP) analyzer for continuous BP measurement, while drug administration is performed via a catheter inserted in the left jugular vein and linked to an automatic syringe pump set at a flow rate of 30 µl*min^−1. […] The syringe pump is initiated at 0 s, and the catheter’s saline dead volume is flushed in approximately 180 s.
Figure 6. […] Changes in mean arterial blood pressure (ΔMABP; A), ejection fraction (ΔEF; B), left ventricular end-systolic (ΔLVES; C) and end-diastolic (ΔLVEDV; D) volumes, and stroke volume (ΔSV; E) were measured from simultaneous in vivo cardiac blood pressure monitoring and ultrasound imaging. […] The syringe pump is initiated at 0 s, and the catheter’s saline dead volume is flushed in approximately 180 s. […] Statistical analyses were performed with an unpaired standard t-test. * p < 0.05, ** p < 0.01 and ***p<0.005.
Male Sprague-Dawley rats (230–350 g, 7–9 weeks of age) were initially anesthetized with 5% isoflurane (mixed with 100% oxygen at a flow rate of 2.5 L/min). The animal was placed in a supine position on a thermostatic pad set at 37°C, and anesthesia was maintained with 2% isoflurane, confirmed by the absence of reflexes to toe pinch. The right femoral artery was cannulated with a PE 50 catheter filled with heparinized saline (10 units/mL) and connected to a Micro-Med transducer (TDX-300) and a Micro-Med blood pressure analyzer (BPA-100c). The left jugular vein was also cannulated with a PE 50 catheter filled with heparinized saline (10 units/mL) and connected to a syringe operated by an automatic pump with a flow rate of 30 µL min-1. […] Blood pressure parameters were continuously obtained throughout the experiment, and heart function parameters were simultaneously captured at various time points using a Vevo3100 echocardiography system equipped with an MX250 ultrasound probe (FUJIFILM VisualSonics). The ejection fraction was determined from a parasternal long-axis view of the left ventricle in B-mode imaging and analyzed using Vevo LAB 5.7.1 (FUJIFILM VisualSonics). Data were presented as the mean ± SEM of four different rats per group. Statistical analyses were conducted with standard analysis of variance (ANOVA) followed by Tukey’s multiple comparisons test. […]

Data set [1] deals with T1, endogenous AT1R (Rattus norvegicus, UniProt P25095).
T1 construct: expressing low levels of endogenous AT1R; endogenous in cells; host or cells: rat primary VSMC, passages 13-15
T1 sequence (P25095 1-359): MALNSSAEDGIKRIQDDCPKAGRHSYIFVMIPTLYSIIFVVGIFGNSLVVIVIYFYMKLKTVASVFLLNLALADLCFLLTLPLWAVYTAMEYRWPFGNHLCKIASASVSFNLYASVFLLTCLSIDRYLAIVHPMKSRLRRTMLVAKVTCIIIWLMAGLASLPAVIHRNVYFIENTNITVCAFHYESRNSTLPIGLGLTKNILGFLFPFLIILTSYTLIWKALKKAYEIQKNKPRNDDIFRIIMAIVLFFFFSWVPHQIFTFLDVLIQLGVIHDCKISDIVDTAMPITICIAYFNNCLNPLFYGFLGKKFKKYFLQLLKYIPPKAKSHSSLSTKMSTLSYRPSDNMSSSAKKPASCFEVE
As to the kind of experiment: PKC BRET sensor in rat primary VSMC with endogenous AT1R. As to conditions: adenoviral PKC BRET sensor, 1 min stimulation, mean ± SEM of at least three to five independent experiments, read-out: EC50 PKC in VSMCs. The class given is cell-based. An excerpt:
(§1) We next assessed the analogs’ ability to engage Gαq by assessing either the PKC or Rho responses in rat primary vascular smooth muscle cell (VSMC) culture, expressing low levels of endogenous AT1R (between 25–50 fmol/mg) (Figure 4, Table 6).
(§2) The coding regions of the PKC-c1b sensor, PKN-RBD-RlucII, and rGFPcaax were PCR-amplified and subcloned into the KpnI/XhoI sites of the pENTR3C vector (Invitrogen), respectively. These were then transferred into the adenoviral expression vector pAd/CMV/V5-DEST (Invitrogen), via gateway cloning (pAD-CMV-PKC-c1b, pAD-CMV-PKN-RBD-RLucII, and pAD-CMV-rGFPcaax). Viruses containing the sensor codes were generated following a previously outlined process.[49] […] The following day, cells were transfected with 4 µg of PacI-digested pAd5-CMVsensors using Lipofectamine 2000 (Invitrogen). After 7–10 days post-transfection, mature virus particles were gleaned via the collection of cells and media, which then underwent multiple cycles of freezing and thawing, followed by centrifugation. The harvested virus was amplified by re-infection on 100-mm dishes of confluent HEK293A cells, and harvested 48-72 h later. Viral titers were determined by serial dilution of adenovirus stock and subsequent infection of HEK293A cells in 96-well plates. 36 h after infection, cells were stained using an anti-hexon antibody (ab8249; Abcam), and hexon-expressing cells were tallied via fluorescence microscopy. The virus was then stored at −80°C. After this, rat VSMCs (between the 13th to 15th passages) were seeded at a density of 20,000 cells in each well of white 96-well plates 24 h before transduction with the viral vector. The cells were then transduced with the PKC sensor-adenovirus (3 μL per well) or Rho sensor (1 μL each per well of PKN-RBD-RLucII-adnovirus and rGFP-caax adenovirus). After 24 h, the medium was replaced. 48 h post-viral transduction, the cells were thoroughly washed with Tyrode’s buffer. Finally, BRET assays were carried out as detailed below.
(§3) On the day of the experiment, each well was washed with 80 µL of Tyrode’s buffer (140 mM NaCl, 2.7 mM KCl, 1 mM CaCl2, 12 mM NaHCO3, 5.6 mM D-glucose, 0.5 mM MgCl2, 0.37 mM NaH2PO4, 25 mM Hepes (pH 7.4)). This was followed by incubation for 1 h in Tyrode’s buffer at room temperature. For the Gαq, β-arrestin-2, and PKC biosensors used in HEK293 cells, coelenterazine 400A (at a final concentration of 5 μM) was added 10 min before stimulation. Cells were then stimulated with increasing doses of the indicated ligand, and BRET signals were measured using a Tristar2 (Berthold) microplate reader 10 min later. For the PKC and Rho biosensors in VSMCs, and the Rho biosensor in ΔG12/13 cells, cells were similarly stimulated with ligands for 1 min, 1 min 30 s, and 3 min, respectively, before BRET measurement. […] BRET signals were then measured using a Synergy2 (BioTek) microplate reader. The applied filter set was 410/80 nm and 515/30 nm, designed to detect the light emissions of RlucII (Renilla luciferase) (donor) and rGFP (acceptor), respectively.

The target in data set [2] is T1, endogenous AT1R. Kind of data set: Rho BRET sensor in rat primary VSMC with endogenous AT1R. The class given is cell-based. As to conditions: adenoviral Rho BRET sensor, 1 min 30 s stimulation, mean ± SEM of at least three to five independent experiments, read-out: EC50 Rho in VSMCs.
Source text: as §1, §2, §3

For the compound `CC[C@H](C)[C@H](NC(=O)[C@H](Cc1ccc(O)cc1)NC(=O)[C@@H](NC(=O)[C@H](CCCNC(=N)N)NC(=O)[C@@H](N)CC(=O)O)C(C)C)C(=O)N[C@@H](Cc1c[nH]cn1)C(=O)N1CCC[C@H]1C(=O)N[C@@H](Cc1ccccc1Cl)C(=O)O` [29a], the half-life at 182 µM in the data set “Plasma stability” was found to be 0.533 ± 0.05 h.
For `CC[C@H](C)[C@H](NC(=O)[C@H](Cc1ccc(O)cc1)NC(=O)[C@@H](NC(=O)[C@H](CCCNC(=N)N)NC(=O)[C@@H](N)CC(=O)O)C(C)C)C(=O)N[C@@H](Cc1c[nH]cn1)C(=O)N1CCC[C@H]1C(=O)N[C@@H](Cc1ccccc1)C(=O)O` [AngII, Angiotensin II], in the data set on Sprague-Dawley rats, the “Change in left ventricular ejection fraction (ΔEF) / cardiac contractility” value was “significant decrease in cardiac ejection fraction of the left ventricle”; the “Change in mean arterial blood pressure (ΔMABP)” value was “rapid and sustained increase in arterial blood pressure”.
Turning to `CCCc1nc(C(C)(C)O)c(C(=O)O)n1Cc1ccc(-c2ccccc2-c2nnn[nH]2)cc1` [Olmesartan], in the data set with Sprague-Dawley rats, the “Change in left ventricular ejection fraction (ΔEF) / cardiac contractility” value is reported as “did not alter the cardiovascular parameters measured” and the “Change in mean arterial blood pressure (ΔMABP)” value was “did not alter the cardiovascular parameters measured”.
`CC[C@H](C)[C@H](NC(=O)[C@H](Cc1ccc(O)cc1)NC(=O)[C@@H](NC(=O)[C@H](CCCNC(=N)N)NC(=O)CNC)C(C)C)C(=O)N[C@@H](Cc1cnc[nH]1)C(=O)N1CCC[C@H]1C(=O)N[C@H](C)C(=O)O` [TRV027, reference compound]: the EC50 on endogenous AT1R [1] and at endogenous AT1R [2] was above 10 µM each time. Moreover, the half-life at 182 µM in “Plasma stability” stood at 16.1 ± 1.2 h.

Values taken from paper doi:10.1101/2025.08.13.670122v1 (bioRxiv, 2025).
